Laboratory results reported in ChEMBL document CHEMBL3885881, “DrugMatrix”.

Species: Rattus norvegicus
Assay: DrugMatrix - Regimen: Daily Repeat
Format: toxicity, organism-based, Sprague-Dawley
Set-up: regimen Daily Repeat, gender Male, age 6-8 weeks
Conditions: in vivo, po, route oral GAVAGE, […]; for ABSOLUTE BASOPHIL / ABSOLUTE EOSINOPHIL / ABSOLUTE LYMPHOCYTE / ABSOLUTE MONOCYTE / ABSOLUTE SEGMENTED NEUTROPHIL / BASOPHIL / EOSINOPHIL / ERYTHROCYTE COUNT / HEMATOCRIT / HEMOGLOBIN / LEUKOCYTE COUNT / LYMPHOCYTE / MEAN CORPUSCULAR HEMOGLOBIN / MEAN CORPUSCULAR HEMOGLOBIN CONCENTRATION / MEAN CORPUSCULAR VOLUME / MONOCYTE / NEUTROPHIL / NUCLEATED RED BLOOD CELLS / PLATELET COUNT: tissue Blood; for ALANINE AMINOTRANSFERASE / ALBUMIN / ALKALINE PHOSPHATASE / ASPARTATE AMINOTRANSFERASE / BLOOD UREA NITROGEN / CARBON DIOXIDE / CHLORIDE / CHOLESTEROL / CREATINE PHOSPHOKINASE / CREATININE / GLUCOSE / LACTATE DEHYDROGENASE / LIPASE / PHOSPHORUS / POTASSIUM / SODIUM / TOTAL BILIRUBIN / TOTAL PROTEIN / URIC ACID: tissue Plasma
[1] = 5 mg/kg, 120 h, dose level Low, time 5 day
[2] = 94 mg/kg, 72 h, dose level High, time 3 day
[3] = 94 mg/kg, 120 h, dose level High, time 5 day

Structure (SMILES): CC(C)n1c(/C=C/C(O)CC(O)CC(=O)O)c(-c2ccc(F)cc2)c2ccccc21 (centres undefined) [FLUVASTATIN]
- ABSOLUTE BASOPHIL [1]: 0 CELLS/uL
- ABSOLUTE EOSINOPHIL [1]: 0 CELLS/uL
- ABSOLUTE LYMPHOCYTE [1]: 8489.33 CELLS/uL
- ABSOLUTE MONOCYTE [1]: 28 CELLS/uL
- ABSOLUTE SEGMENTED NEUTROPHIL [1]: 816 CELLS/uL
- BASOPHIL [1]: 0%
- EOSINOPHIL [1]: 0%
- ERYTHROCYTE COUNT [1]: 5.73 x10E6/uL
- HEMATOCRIT [1]: 34.77%
- HEMOGLOBIN [1]: 13.73 G/DL
- LEUKOCYTE COUNT [1]: 9.33 x10E3/uL
- LYMPHOCYTE [1]: 90.67%
- MEAN CORPUSCULAR HEMOGLOBIN [1]: 24 pg
- MEAN CORPUSCULAR HEMOGLOBIN CONCENTRATION [1]: 39.5 G/DL
- MEAN CORPUSCULAR VOLUME [1]: 60.73 fL
- MONOCYTE [1]: 0.33%
- NEUTROPHIL [1]: 9%
- NUCLEATED RED BLOOD CELLS [1]: 0 /100WBC
- PLATELET COUNT [1]: 1186.33 x10E3/uL
- ALANINE AMINOTRANSFERASE [1]: 89.67 u/L
- ALBUMIN [1]: 4.33 G/DL
- ALKALINE PHOSPHATASE [1]: 440.33 u/L
- ASPARTATE AMINOTRANSFERASE [1]: 141.33 u/L
- BLOOD UREA NITROGEN [1]: 13 mg/dL
- CARBON DIOXIDE [1]: 25.67 mmol/L
- CHLORIDE [1]: 103 MEQ/L
- CHOLESTEROL [1]: 59.67 mg/dL
- CREATINE PHOSPHOKINASE [1]: 300.67 u/L
- CREATININE [1]: 0.19 mg/dL
- GLUCOSE [1]: 158.33 mg/dL
- LACTATE DEHYDROGENASE [1]: 263.33 u/L
- LIPASE [1]: 51.67 u/L
- PHOSPHORUS [1]: 9.2 mg/dL
- POTASSIUM [1]: 5.92 MEQ/L
- SODIUM [1]: 148.8 MEQ/L
- TOTAL BILIRUBIN [1]: 0.17 mg/dL
- TOTAL PROTEIN [1]: 5.6 G/DL
- URIC ACID [1]: 0.77 mg/dL
- ABSOLUTE BASOPHIL [2]: 0 CELLS/uL
- ABSOLUTE EOSINOPHIL [2]: 39 CELLS/uL
- ABSOLUTE LYMPHOCYTE [2]: 7651.67 CELLS/uL
- ABSOLUTE MONOCYTE [2]: 155.33 CELLS/uL
- ABSOLUTE SEGMENTED NEUTROPHIL [2]: 2554 CELLS/uL
- BASOPHIL [2]: 0%
- EOSINOPHIL [2]: 0.33%
- ERYTHROCYTE COUNT [2]: 5.55 x10E6/uL
- HEMATOCRIT [2]: 35.43%
- HEMOGLOBIN [2]: 13.93 G/DL
- LEUKOCYTE COUNT [2]: 10.4 x10E3/uL
- LYMPHOCYTE [2]: 73.33%
- MEAN CORPUSCULAR HEMOGLOBIN [2]: 25.1 pg
- MEAN CORPUSCULAR HEMOGLOBIN CONCENTRATION [2]: 39.33 G/DL
- MEAN CORPUSCULAR VOLUME [2]: 63.83 fL
- MONOCYTE [2]: 1.33%
- NEUTROPHIL [2]: 25%
- NUCLEATED RED BLOOD CELLS [2]: 0 /100WBC
- PLATELET COUNT [2]: 1394.33 x10E3/uL
- ALANINE AMINOTRANSFERASE [2]: 258.33 u/L
- ALBUMIN [2]: 4.47 G/DL
- ALKALINE PHOSPHATASE [2]: 597.67 u/L
- ASPARTATE AMINOTRANSFERASE [2]: 446.67 u/L
- BLOOD UREA NITROGEN [2]: 15 mg/dL
- CARBON DIOXIDE [2]: 34.67 mmol/L
- CHLORIDE [2]: 95.67 MEQ/L
- CHOLESTEROL [2]: 55.67 mg/dL
- CREATINE PHOSPHOKINASE [2]: 534 u/L
- CREATININE [2]: 0.16 mg/dL
- GLUCOSE [2]: 136.33 mg/dL
- LACTATE DEHYDROGENASE [2]: 400.33 u/L
- LIPASE [2]: 10 u/L
- PHOSPHORUS [2]: 11.83 mg/dL
- POTASSIUM [2]: 5.75 MEQ/L
- SODIUM [2]: 143.43 MEQ/L
- TOTAL BILIRUBIN [2]: 0.2 mg/dL
- TOTAL PROTEIN [2]: 6.1 G/DL
- URIC ACID [2]: 0.7 mg/dL
- ABSOLUTE BASOPHIL [3]: 0 CELLS/uL
- ABSOLUTE EOSINOPHIL [3]: 0 CELLS/uL
- ABSOLUTE LYMPHOCYTE [3]: 6138.33 CELLS/uL
- ABSOLUTE MONOCYTE [3]: 139 CELLS/uL
- ABSOLUTE SEGMENTED NEUTROPHIL [3]: 2022.67 CELLS/uL
- BASOPHIL [3]: 0%
- EOSINOPHIL [3]: 0%
- ERYTHROCYTE COUNT [3]: 6.14 x10E6/uL
- HEMATOCRIT [3]: 37.2%
- HEMOGLOBIN [3]: 14.47 G/DL
- LEUKOCYTE COUNT [3]: 8.3 x10E3/uL
- LYMPHOCYTE [3]: 74%
- MEAN CORPUSCULAR HEMOGLOBIN [3]: 23.6 pg
- MEAN CORPUSCULAR HEMOGLOBIN CONCENTRATION [3]: 38.9 G/DL
- MEAN CORPUSCULAR VOLUME [3]: 60.67 fL
- MONOCYTE [3]: 1.67%
- NEUTROPHIL [3]: 24.33%
- NUCLEATED RED BLOOD CELLS [3]: 0 /100WBC
- PLATELET COUNT [3]: 1488.67 x10E3/uL
- ALANINE AMINOTRANSFERASE [3]: 191 u/L
- ALBUMIN [3]: 4.5 G/DL
- ALKALINE PHOSPHATASE [3]: 802.67 u/L
- ASPARTATE AMINOTRANSFERASE [3]: 387.67 u/L
- BLOOD UREA NITROGEN [3]: 11.67 mg/dL
- CARBON DIOXIDE [3]: 29.33 mmol/L
- CHLORIDE [3]: 100 MEQ/L
- CHOLESTEROL [3]: 53.33 mg/dL
- CREATINE PHOSPHOKINASE [3]: 612.33 u/L
- CREATININE [3]: 0.13 mg/dL
- GLUCOSE [3]: 134.33 mg/dL
- LACTATE DEHYDROGENASE [3]: 263.33 u/L
- LIPASE [3]: 38.67 u/L
- PHOSPHORUS [3]: 7.8 mg/dL
- POTASSIUM [3]: 5.55 MEQ/L
- SODIUM [3]: 149.05 MEQ/L
- TOTAL BILIRUBIN [3]: 0.1 mg/dL
- TOTAL PROTEIN [3]: 6.03 G/DL
- URIC ACID [3]: 0.43 mg/dL
